The target in series [1] is Enteropeptidase (Homo sapiens) (UniProt P98073). The series can be described thus: Inhibition of full length recombinant human EP expressed in CHO cells assessed as ratio of Kinact/Kiapp. Format: cell-based.
Series [2] can be described thus: AUClast in C57BL/6J mouse at 20 mg/kg, po. Format: ADME, organism-based. On the set-up: route oral, time 0 - last, dose 20 mg/kg. Particulars: in vivo.
Series [3] can be described thus: Apparent permeability from apical to basolateral side in dog MDCK cells. It counts as ADME, cell-based, Canis lupus familiaris.
The species named for series [4] is Bos taurus. The series can be described thus: Inhibition of bovine trypsin assessed as protease activity using D-CHA-AR-AMC as substrate at 10 uM by fluorescence assay relative to control. On the set-up: scale not given: the % may be the effect or the level left.
A short description of series [5]: Oral bioavailability in C57BL/6J mouse at 20 mg/kg. Format: ADME, organism-based. Particulars: in vivo.
For series [6], the species on record is Bos taurus. Nature of the series: Inhibition of bovine trypsin assessed as protease activity using D-CHA-AR-AMC as substrate at 0.1 uM by fluorescence assay relative to control. The arrangement: scale not given: the % may be the effect or the level left.
The nature of series [7]: Volume of distribution at steady state in C57BL/6J mouse at 5 mg/kg, iv. Format: ADME, organism-based. Particulars: in vivo, read-out: Vdss.
Series [8] can be described thus: Cmax in C57BL/6J mouse at 20 mg/kg, po. Format: ADME, organism-based. The arrangement: route oral, dose 20 mg/kg. The conditions noted are these: in vivo.
The species entered for series [9] is Bos taurus. Nature of the series: Inhibition of bovine trypsin assessed as ratio of Kinact/Kiapp.
For series [10], the species on record is Bos taurus. The series can be described thus: Inhibition of bovine trypsin assessed as protease activity using D-CHA-AR-AMC as substrate at 1 uM by fluorescence assay relative to control. The arrangement: scale not given: the % may be the effect or the level left.
The target in series [11] is Enteropeptidase (Homo sapiens) (UniProt P98073). Nature of the series: Inhibition of full length recombinant human EP expressed in CHO cells assessed as protease activity using […] as substrate at 0.1 uM by fluorescence assay relative to control. The arrangement: scale not given: the % may be the effect or the level left.
Series [12] is described as follows: Clearance in C57BL/6J mouse at 5 mg/kg, iv. It counts as ADME, organism-based. The conditions noted are these: in vivo.
The target in series [13] is Enteropeptidase (Homo sapiens) (UniProt P98073). The series can be described thus: Inhibition of full length recombinant human EP expressed in CHO cells assessed as protease activity using […] as substrate at 1 uM by fluorescence assay relative to control. On the set-up: scale not given: the % may be the effect or the level left.
For series [14] the target is unchanged. The series can be described thus: Inhibition of full length recombinant human EP expressed in CHO cells assessed as protease activity using […] as substrate at 10 uM by fluorescence assay relative to control. The arrangement: scale not given: the % may be the effect or the level left.
The nature of series [15]: In vivo inhibition of EP in diet induced obese C57BL/6J mouse assessed as increase in fecal protein content at 30 mg/kg, po measured after 24 hrs relative to control. It counts as functional.

SMILES strings stand for the structures.

Broadly, the AUC(0-t) is exposure summed from dosing to a finite time, without extrapolation to infinity. For orientation: Papp A→B means how fast a substance crosses the layer from the apical side. For orientation: bioavailability means dose-corrected exposure relative to a reference, in per cent. Broadly, the Cmax is the peak of the concentration-time curve. As usually defined, the clearance is the volume of plasma or blood freed of the substance per unit of time.

Chain of Enteropeptidase (Homo sapiens) (P98073 2-784 limits assumed): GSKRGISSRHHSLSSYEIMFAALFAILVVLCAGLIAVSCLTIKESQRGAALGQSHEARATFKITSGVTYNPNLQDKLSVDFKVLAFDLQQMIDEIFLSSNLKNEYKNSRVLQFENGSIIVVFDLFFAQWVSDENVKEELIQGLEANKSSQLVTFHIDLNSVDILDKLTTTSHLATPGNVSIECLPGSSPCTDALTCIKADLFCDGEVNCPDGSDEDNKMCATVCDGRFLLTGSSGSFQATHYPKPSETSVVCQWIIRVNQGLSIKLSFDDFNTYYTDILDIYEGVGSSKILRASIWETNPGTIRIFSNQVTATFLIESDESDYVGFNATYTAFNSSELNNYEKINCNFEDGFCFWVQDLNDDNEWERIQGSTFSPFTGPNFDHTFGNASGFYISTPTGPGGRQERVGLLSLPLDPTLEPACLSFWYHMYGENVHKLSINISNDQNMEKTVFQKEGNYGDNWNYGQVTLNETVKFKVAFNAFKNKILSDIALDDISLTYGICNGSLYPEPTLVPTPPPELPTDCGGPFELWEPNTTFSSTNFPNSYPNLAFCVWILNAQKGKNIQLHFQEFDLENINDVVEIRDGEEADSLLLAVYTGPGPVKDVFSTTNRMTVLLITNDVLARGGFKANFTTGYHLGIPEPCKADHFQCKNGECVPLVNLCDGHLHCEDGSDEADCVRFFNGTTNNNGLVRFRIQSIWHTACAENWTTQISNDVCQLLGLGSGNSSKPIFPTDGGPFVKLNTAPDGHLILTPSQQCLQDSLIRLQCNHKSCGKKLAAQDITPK
Chain of Enteropeptidase (Homo sapiens) (P98073 785-1019 limits assumed): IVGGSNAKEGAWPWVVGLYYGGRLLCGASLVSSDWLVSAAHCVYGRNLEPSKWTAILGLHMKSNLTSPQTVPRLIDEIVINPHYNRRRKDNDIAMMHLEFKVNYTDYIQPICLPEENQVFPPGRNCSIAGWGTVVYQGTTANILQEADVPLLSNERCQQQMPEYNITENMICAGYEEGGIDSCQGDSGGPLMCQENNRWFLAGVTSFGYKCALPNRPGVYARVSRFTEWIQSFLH

Take `N=C(N)Nc1ccc(C(=O)Oc2ccc(CC(=O)O)n3ncnc23)cc1`: the values for the Ratio in [1] and in [9] were 130000 M⁻¹ s⁻¹ and 159000 M⁻¹ s⁻¹, respectively. The compound further came in with an AUC(0-t) in series [2] of 27 ng·h/mL. Further, in series [3], the Papp A→B amounted to 1.53 ×10⁻⁶ cm/s. The Activity came out at 100% in series [4]; 97.2% in [6]; 100% in series [10]; 97.8% in [11]; 100% in series [13]; 100% in series [14]. Moreover, the bioavailability in series [5] was 1.6%. In addition, the Vd in [7] is 3.68 L/kg. This compound showed a Cmax in series [8] of 43 ng/mL. Besides, in [12], the clearance was 192 mL/min/kg. Also, the “fold change (FC)” value in [15] is 2.4.
Regarding `C#CCOCCOCC#Cc1ccc(CC(=O)O)n2ncnc12`, the results for the Ratio in series [1] and in series [9] were 52800 M⁻¹ s⁻¹ and 59400 M⁻¹ s⁻¹, respectively. The Activity in series [4] worked out at 100%; in [6], 52.9%; in [10] it was 99.6%; in series [11], 63%; in [13], 98.5%; in series [14], 99.8%.
As to `N=C(N)Nc1ccc(C(=O)Oc2ccc(CC(=O)N[C@@H](CC(=O)O)C(=O)O)n3ccnc23)cc1`, in series [3], the Papp A→B amounted to 0.75 ×10⁻⁶ cm/s. The Activity in [4] was determined as 100%; in series [6], 99.3%; in [10], 100%; in [11], 81.2%; in series [13], 100%; in series [14], 100%.
As for `N=C(N)Nc1ccc(C(=O)Oc2ccc(CC(=O)NCC(=O)O)n3ncnc23)cc1`, the Papp A→B in series [3] stood at 1.03 ×10⁻⁶ cm/s. Further, the Activity worked out at 100% in series [4]; 99.7% in series [6]; 100% in series [10]; 48.1% in series [11]; 101% in series [13]; 100% in [14].
In the case of `N=C(N)Nc1ccc(C(=O)Oc2ccc(CC(=O)O)n3ncnc23)cc1F`, the Ratio was found to be 72800 M⁻¹ s⁻¹ in [1] and 69700 M⁻¹ s⁻¹ in series [9]. Besides, the Activity was 100% in [4]; 87.6% in series [6]; 100% in series [10]; 96.8% in series [11]; 100% in [13]; 100% in series [14].
Regarding `N=C(N)Nc1ccc(C(=O)Oc2ccc(CC(=O)NC(CC(=O)O)(CC(=O)O)CC(=O)O)n3ncnc23)cc1`, the apparent permeability from apical to basolateral (Papp A→B) in series [3] turned out to be 1.09 ×10⁻⁶ cm/s. The Activity in series [4] is 100%; in series [6], 94.1%; in [10] it was 100%; in series [11], 37.8%; in [13], 100%; in [14], 100%. The “fold change (FC)” value in [15] worked out at 1.7.
`N=C(N)Nc1ccc(C(=O)Oc2ccc(CC(=O)N(CC(=O)O)CC(=O)O)n3ncnc23)cc1`: in series [3], the Papp A→B was determined as 1.26 ×10⁻⁶ cm/s. Further, the Activity in [4] stood at 100%; in series [6] it was 89.6%; in series [10], 99.9%; in [11], 20.9%; in [13] it was 72.9%; in series [14] it was 101%. The “fold change (FC)” value in series [15] came out at 1.5.
In the case of `N=C(N)Nc1ccc(C(=O)Oc2ccc(CCC(=O)O)n3ccnc23)cc1`, the Ratio in series [1] came to 24400 M⁻¹ s⁻¹. For the same compound, the Activity in [4] amounted to 100%; in series [6] it was 61%; in series [10] it was 100%; in [11] it was 27.6%; in series [13], 95.1%; in series [14], 100%.
For `N=C(N)Nc1ccc(C(=O)Oc2ccc(Cc3nn[nH]n3)n3ncnc23)cc1`, the Papp A→B in series [3] was found to be 1.45 ×10⁻⁶ cm/s. The Activity was found to be 100% in series [4]; 89.3% in series [6]; 100% in series [10]; 89.7% in [11]; 101% in [13]; 100% in [14].
Consider `CS(=O)(=O)NC(=O)Cc1ccc(OC(=O)c2ccc(NC(=N)N)cc2)c2ncnn12`, for which the values for the Ratio in series [1] and in [9] were 181000 M⁻¹ s⁻¹ and 163000 M⁻¹ s⁻¹, respectively. Also, in series [3], the Papp A→B was 0.51 ×10⁻⁶ cm/s. The Activity came to 99.9% in series [4]; 98.8% in series [6]; 100% in [10]; 101% in series [11]; 100% in series [13]; 100% in [14].
On to `N=C(N)Nc1ccc(C(=O)Oc2ccc(CC(=O)N[C@@H](CC(=O)O)C(=O)O)n3ncnc23)cc1`, for which the Papp A→B in [3] turned out to be 0.56 ×10⁻⁶ cm/s. The Activity in series [4] came to 100%; in [6] it was 98.3%; in series [10], 100%; in [11], 48.3%; in series [13], 101%; in series [14], 101%. For the same compound, the “fold change (FC)” value in [15] amounted to 2.4.
With `N=C(N)Nc1ccc(C(=O)Oc2cc(CCC(=O)O)cn3ncnc23)cc1`, the Papp A→B in series [3] was 1.12 ×10⁻⁶ cm/s. Further, the Activity was determined as 100% in series [4]; 99.2% in series [6]; 100% in series [10]; 45.2% in series [11]; 103% in series [13]; 101% in [14].
Turning to `CNC(=N)Nc1ccc(C(=O)Oc2ccc(CC(=O)O)n3ncnc23)cc1`, the Activity in [4] came out at 97.7%; in series [6], 9.6%; in [10], 57.1%; in [11], 15.3%; in series [13], 80.1%; in series [14], 97.9%.
`CONC(=N)c1ccc(C(=O)Oc2ccc(CC(=O)O)n3ncnc23)cc1`: the Activity in [4] was 18.2%; in series [6], -3.11%; in series [10], -3.33%; in series [11] it was 2.43%; in series [13], 9.05%; in [14] it was 34%.
On to `N=C(N)Nc1ccc(C(=O)Oc2ccc(CC(=O)O)n3ccnc23)cc1`, for which the Ratio is 210000 M⁻¹ s⁻¹ in series [1] and 111000 M⁻¹ s⁻¹ in series [9]. Also, the apical-to-basolateral permeability (Papp A→B) in series [3] was determined as 1.48 ×10⁻⁶ cm/s. Also, the Activity in [4] was 101%; in series [6], 96.3%; in series [10] it was 101%; in [11], 101%; in series [13], 100%; in series [14] it was 100%.
With `N=C(N)Nc1ccc(C(=O)Oc2ccc(CC(=O)O)n3ncnc23)cc1O`, the Activity in series [4] was found to be 100%; in series [6] it was 12.4%; in [10] it was 73.1%; in series [11], 34.3%; in series [13], 92.1%; in [14], 101%.
Take `N=C1NCCN1c1ccc(C(=O)Oc2ccc(CC(=O)O)n3ncnc23)cc1`: the Activity in [4] turned out to be 93%; in series [6] it was 10.9%; in [10], 58.3%; in series [11], 10.5%; in [13], 57.9%; in series [14], 93.2%.
As for `Cc1cc(NC(=N)N)ccc1C(=O)Oc1ccc(CC(=O)O)n2ncnc12`, the Activity in series [4] was 99.7%; in [6] it was 9.45%; in [10] it was 49%; in series [11], 10.3%; in series [13], 59.9%; in [14], 101%.
For the compound `CN(C(=N)N)c1ccc(C(=O)Oc2ccc(CC(=O)O)n3ncnc23)cc1`, the Activity amounted to 98.9% in series [4]; 31.4% in [6]; 89.2% in series [10]; 40.5% in series [11]; 93.8% in [13]; 99.3% in series [14].

The values above are taken from ChEMBL document CHEMBL4819050, “Discovery of a novel series of guanidinebenzoates as gut-restricted enteropeptidase and trypsin dual inhibitors for the treatment of metabolic syndrome” (Bioorg Med Chem Lett, 2021).
